Measurements taken from patent publication US20140199420A1, “USES OF TOONA SINENSIS EXTRACT” (National Chung Hsing University, priority 2013, published 2014).

Tested on: lactic acid bacteria
Test: Lactic acid bacteria count of Taiwanese style sausage during storage
Details: second group, 25% sodium lactate; at 4 and 8 weeks storage at 15° C.
Procedure: The each group of sausages prepared from example 4 was packed in equal with vacuum package and stored at 15° C. for 8 weeks. Taking the amounts of sausages from the each group in 0, 1, 2, 3, 4 and 8 weeks were separately packed into sterile bags with sterile water and homogenized with a stomacher (Lab-Blender 400, England) for 30 second to have dilutions of the each group's sausages at different storage times for further microbiological analyzing.
The dilutions of the each group's sausage at different storage times were separately poured into a petri dish, added first layer of MRS agar into the each petri dish and then mixed completely. The second layer of MRS agar was poured on the first layer of MRS agar to produce an anaerobic condition then mixed and incubated at 37° C. for 48 hours in an anaerobic jar.

With `CC(O)C(=O)[O-].[Na+]` (stereo not shown) [sodium lactate] the “lactic acid bacteria count” value was 7.52 log CFU/g.
